From the NIST ThermoML archive (doi:10.1021/je049743g)
Values joined by “and” are separate entries in the source; they are usually repeats but may differ in a detail not shown here. Equal entries are not always repeated.

Assay: wn = mass fraction of the nth substance listed
Settings: Capillary rise

FC(C(F)(F)F)C(F)(F)F [1,1,1,2,3,3,3-heptafluoropropane] + FCF
Settings | surface tension liquid-gas
293.83 K, w2 = 0.3843 | 6.74 mN/m
293.91 K, w2 = 0.7179 | 7.04 mN/m and 7.05 mN/m
295.16 K, w2 = 0.3381 | 6.6 mN/m
295.43 K, w2 = 0.2853 | 6.55 mN/m
295.48 K, w2 = 0.2853 | 6.53 mN/m
295.5 K, w2 = 0.7173 | 6.81 mN/m and 6.83 mN/m
295.61 K, w2 = 0.5282 | 6.53 mN/m
296.02 K, w2 = 0.3832 | 6.41 mN/m and 6.4 mN/m
296.82 K, w2 = 0.3372 | 6.36 mN/m
297.36 K, w2 = 0.3826 | 6.2 mN/m
297.42 K, w2 = 0.2844 | 6.35 mN/m and 6.32 mN/m
297.68 K, w2 = 0.5271 | 6.29 mN/m
297.86 K, w2 = 0.3366 | 6.21 mN/m
299.17 K, w2 = 0.3817 | 6.01 mN/m
299.22 K, w2 = 0.2835 | 6.13 mN/m and 6.1 mN/m
299.29 K, w2 = 0.3358 | 6.06 mN/m and 6.07 mN/m
299.5 K, w2 = 0.7156 | 6.17 mN/m
299.8 K, w2 = 0.5259 | 6.04 mN/m and 6.03 mN/m
301.27 K, w2 = 0.3346 | 5.76 mN/m
301.41 K, w2 = 0.2825 | 5.8 mN/m and 5.82 mN/m
301.58 K, w2 = 0.5249 | 5.78 mN/m and 5.77 mN/m
301.63 K, w2 = 0.7146 | 5.9 mN/m
301.75 K, w2 = 0.3803 | 5.66 mN/m and 5.69 mN/m
303.27 K, w2 = 0.3335 | 5.52 mN/m
303.33 K, w2 = 0.3795 | 5.49 mN/m and 5.54 mN/m
303.46 K, w2 = 0.2815 | 5.55 mN/m
303.55 K, w2 = 0.7137 | 5.59 mN/m
303.87 K, w2 = 0.5235 | 5.48 mN/m and 5.44 mN/m
305.17 K, w2 = 0.3785 | 5.35 mN/m and 5.33 mN/m
305.26 K, w2 = 0.3323 | 5.3 mN/m and 5.29 mN/m
305.28 K, w2 = 0.2805 | 5.35 mN/m and 5.37 mN/m
305.75 K, w2 = 0.7126 | 5.34 mN/m
306.29 K, w2 = 0.5221 | 5.16 mN/m and 5.13 mN/m
307.23 K, w2 = 0.3774 | 5.01 mN/m and 5.06 mN/m
307.24 K, w2 = 0.3311 | 5.08 mN/m
307.36 K, w2 = 0.7118 | 5.04 mN/m
307.39 K, w2 = 0.5214 | 4.94 mN/m
307.96 K, w2 = 0.2792 | 5.04 mN/m and 5.05 mN/m
309.18 K, w2 = 0.3299 | 4.8 mN/m
309.34 K, w2 = 0.2785 | 4.87 mN/m and 4.85 mN/m
309.43 K, w2 = 0.7107 | 4.7 mN/m
309.63 K, w2 = 0.3761 | 4.63 mN/m and 4.67 mN/m
309.81 K, w2 = 0.5198 | 4.64 mN/m and 4.63 mN/m
311.24 K, w2 = 0.3286 | 4.61 mN/m
311.26 K, w2 = 0.3752 | 4.45 mN/m and 4.48 mN/m
311.28 K, w2 = 0.7097 | 4.51 mN/m
311.62 K, w2 = 0.2773 | 4.59 mN/m and 4.55 mN/m
311.74 K, w2 = 0.5186 | 4.38 mN/m and 4.36 mN/m
313.21 K, w2 = 0.374 | 4.26 mN/m and 4.22 mN/m
313.22 K, w2 = 0.2764 | 4.42 mN/m
313.26 K, w2 = 0.7086 | 4.22 mN/m
313.35 K, w2 = 0.5175 | 4.15 mN/m and 4.17 mN/m
313.51 K, w2 = 0.3271 | 4.32 mN/m
315.28 K, w2 = 0.326 | 4.12 mN/m and 4.13 mN/m
315.3 K, w2 = 0.3728 | 4.06 mN/m and 4.09 mN/m
315.39 K, w2 = 0.7074 | 3.96 mN/m
315.43 K, w2 = 0.2752 | 4.14 mN/m and 4.13 mN/m
315.61 K, w2 = 0.5159 | 3.88 mN/m
317.24 K, w2 = 0.3247 | 3.88 mN/m
317.3 K, w2 = 0.7064 | 3.7 mN/m
317.43 K, w2 = 0.2742 | 3.91 mN/m and 3.89 mN/m
317.69 K, w2 = 0.5145 | 3.61 mN/m and 3.63 mN/m
318.29 K, w2 = 0.371 | 3.63 mN/m and 3.62 mN/m
319.25 K, w2 = 0.3234 | 3.64 mN/m
319.52 K, w2 = 0.705 | 3.38 mN/m
319.58 K, w2 = 0.273 | 3.7 mN/m and 3.67 mN/m
319.63 K, w2 = 0.3702 | 3.5 mN/m
320 K, w2 = 0.5129 | 3.33 mN/m and 3.32 mN/m
321.27 K, w2 = 0.3692 | 3.29 mN/m
321.3 K, w2 = 0.322 | 3.39 mN/m and 3.38 mN/m
321.31 K, w2 = 0.7039 | 3.12 mN/m
321.42 K, w2 = 0.5118 | 3.13 mN/m and 3.14 mN/m
321.54 K, w2 = 0.2719 | 3.45 mN/m and 3.42 mN/m
323.2 K, w2 = 0.3207 | 3.23 mN/m
323.5 K, w2 = 0.7025 | 2.88 mN/m and 2.87 mN/m
323.69 K, w2 = 0.2707 | 3.19 mN/m
323.72 K, w2 = 0.5102 | 2.92 mN/m
323.76 K, w2 = 0.3677 | 3.03 mN/m and 3.01 mN/m
325.23 K, w2 = 0.3193 | 3.04 mN/m
325.29 K, w2 = 0.3668 | 2.85 mN/m
325.3 K, w2 = 0.7013 | 2.63 mN/m
325.42 K, w2 = 0.2697 | 2.96 mN/m and 2.95 mN/m
325.89 K, w2 = 0.5085 | 2.57 mN/m and 2.59 mN/m
327.16 K, w2 = 0.2688 | 2.8 mN/m and 2.78 mN/m
327.31 K, w2 = 0.3656 | 2.59 mN/m and 2.58 mN/m
327.31 K, w2 = 0.7 | 2.43 mN/m and 2.44 mN/m
327.4 K, w2 = 0.3179 | 2.74 mN/m and 2.73 mN/m
327.68 K, w2 = 0.5072 | 2.37 mN/m and 2.38 mN/m
329.3 K, w2 = 0.3166 | 2.54 mN/m
329.34 K, w2 = 0.6987 | 2.15 mN/m and 2.16 mN/m
329.35 K, w2 = 0.5059 | 2.18 mN/m and 2.19 mN/m
329.37 K, w2 = 0.2676 | 2.6 mN/m and 2.59 mN/m
329.44 K, w2 = 0.3643 | 2.43 mN/m
331.47 K, w2 = 0.5043 | 2.01 mN/m
331.57 K, w2 = 0.315 | 2.24 mN/m
331.61 K, w2 = 0.6971 | 1.87 mN/m
331.65 K, w2 = 0.2663 | 2.36 mN/m and 2.37 mN/m
331.73 K, w2 = 0.3629 | 2.15 mN/m
333.37 K, w2 = 0.2654 | 2.19 mN/m
333.4 K, w2 = 0.3138 | 2.06 mN/m
333.48 K, w2 = 0.3618 | 1.95 mN/m
333.48 K, w2 = 0.6959 | 1.63 mN/m
333.55 K, w2 = 0.5028 | 1.75 mN/m and 1.72 mN/m
